Like-named read-outs stand apart in the source and are kept apart here.
Experiments:
[1] = test system: Klebsiella oxytoca (KOX) isolates; test: MIC of compounds alone and combined with antibacterials, broth microdilution (CLSI); format: cell-based; conditions: for MIC: Klebsiella oxytoca
Outline: (§1)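 First, log-phase suspensions are brought to a final 5·10^5 CFU/mL in cation-adjusted Mueller-Hinton broth. Then plates with compound, antibacterial, or both incubate 16-20 h at 35° C under ambient air. Finally, visual inspection gives the lowest growth-preventing concentration for each agent.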

[2] = test system: Providencia rettgeri (PRE) isolates; test: as above; format: cell-based
Outline: as §1

[3] = test system: Salmonella typhimurium (STY) isolates; test: as above; format: cell-based; conditions: for MIC ATB in combination: STY S3371; for MIC: Salmonella enterica, TYPHIMURIUM, strain STY S3371 (OXA-1)
Outline: as §1

[4] = test system: Serratia marcescens (SMA) isolates; test: as above; format: cell-based; conditions: for MIC: Serratia marcescens, read-out: MIC
Outline: as §1

in vivo = test: in vivo; design: species or system Swiss Mouse; conditions: male, Swiss, mouse, in vivo, 10 mg/kg
Method: Water and food were available ad libitum throughout the study. Mouse were handled in accordance with the institutional and national guidelines for the care and use of laboratory animals. […] Drugs were administered by oral gavage using feeding needle. […] Plasma samples were stored at -80° C. until bioanalysis. […] Plasma samples bioanalysis and data analysis The plasma samples (20 μl) were thawed at 0° C. […] Standard samples were prepared by spiking the blank plasma into concentrations 10-5 000 ng/ml and otherwise treated as the samples. […] Mass spectrometric detection involved electrospray ionization in the negative mode followed by multiple reaction monitoring of the drugs and internal standard transitions. Actual drug concentrations were deduced from interpolation of the standard curve. The pharmacokinetic parameters were calculated using XLfit (IDBS) and Excel (Microsoft) software, using standard non-compartmental methods. The intraduodenal bioavailability was calculated by dividing the AUC obtained from the intraduodenal administration by the AUC obtained from the intravenous administration.

C=CC1=C(C(=O)O)N2C(=O)[C@@H](NC(=O)/C(=N\OCC(=O)O)c3csc(N)n3)[C@H]2SC1 [FIX, Cefixime]
>128 µg/mL: MIC ATB in combination ([2]; PRE UFR99, AF1 @ 4 μg/mL) | MIC ATB in combination ([2]; PRE UFR99, AF1 @ 8 μg/mL)
16 µg/mL: MIC ([1]; strain KOX UFR173 (OXY2-2), ATB alone, read-out: MIC)
0.5 µg/mL: MIC ATB in combination ([2]; strain PRE UFR236, antibacterial combined with AF1 @ 8 μg/mL) | MIC ATB in combination ([4]; SMA UFR139, AF1 @ 4 μg/mL) | MIC ATB in combination ([4]; SMA UFR141, AF1 @ 4 μg/mL) | MIC ATB in combination ([4]; SMA UFR141, AF1 @ 8 μg/mL) | MIC ATB in combination ([4]; SMA UFR239, AF1 @ 4 μg/mL) | MIC ATB in combination ([4]; SMA UFR239, AF1 @ 8 μg/mL) | MIC ([4]; strain SMA UFR137 (SME-1), ATB alone) | MIC ([4]; strain SMA UFR138 (SME-1), ATB alone) | MIC ([4]; strain SMA UFR138 (SME-1), CLA @ 4 μg/ml+ ATB) | MIC ([4]; strain SMA UFR141 (OXA-48), CLA @ 4 μg/ml+ ATB) | MIC ATB in combination ([4]; strain SMA UFR238, antibacterial combined with AF1 @ 8 μg/mL)
1 µg/mL: MIC ATB in combination ([1]; KOX UFR21, AF1 @ 8 μg/mL) | MIC ATB in combination ([2]; strain PRE UFR236, antibacterial combined with AF1 @ 4 μg/mL) | MIC ATB in combination ([4]; SMA UFR134, AF1 @ 4 μg/mL) | MIC ATB in combination ([4]; SMA UFR134, AF1 @ 8 μg/mL) | MIC ATB in combination ([4]; SMA UFR142, AF1 @ 8 μg/mL) | MIC ([4]; ATB alone, strain SMA UFR238 (OXA-48)) | MIC ([4]; strain SMA UFR30 (OXA-405), ATB alone) | MIC ([4]; strain SMA UFR30 (OXA-405), CLA @ 4 μg/ml+ ATB) | MIC ([4]; strain SMA UFR137 (SME-1), CLA @ 4 μg/ml+ ATB) | MIC ([4]; strain SMA UFR139 (SME-2), ATB alone) | MIC ATB in combination ([4]; strain SMA UFR238, antibacterial combined with AF1 @ 4 μg/mL)
4 µg/mL: MIC ([1]; strain KOX UFR173 (OXY2-2), CLA @ 4 μg/ml+ ATB, read-out: MIC) | MIC ATB in combination ([4]; SMA UFR136, AF1 @ 4 μg/mL)
> 128 µg/mL: MIC ([1]; strain KOX UFR21 (TEM-1, CTX-M-15, OXA-48), ATB alone) | MIC ([1]; strain KOX UFR21 (TEM-1, CTX-M-15, OXA-48), CLA @ 4 μg/ml+ ATB) | MIC ([1]; strain KOX UFR224 (CTX-M-15, OXA-48), ATB alone) | MIC ([2]; Providencia rettgeri, strain PRE UFR99 (OXA-1, OXA-181), ATB alone) | MIC ([2]; Providencia rettgeri, strain PRE UFR99 (OXA-1, OXA-181), CLA @ 4 μg/ml+ ATB) | MIC ([4]; strain SMA UFR134 (TEM-1, BES-1), ATB alone) | MIC ([4]; strain SMA UFR136 (TEM-1, SHV-12, KPC-2), ATB alone) | MIC ([4]; strain SMA UFR136 (TEM-1, SHV-12, KPC-2), CLA @ 4 μg/ml+ ATB)
512 µg/mL: MIC ([4]; SMA UFR143, alone) | MIC ([4]; strain SMA UFR143 (CTX-M-15, OXA-1, OXA-48), ATB alone)
32 µg/mL: MIC ([2]; ATB combined with CLA @ 4 μg/ml, strain PRE UFR236 (TEM-1, OXA-48)) | MIC ([2]; Providencia rettgeri, ATB alone, strain PRE UFR236 (TEM-1, OXA-48), read-out: MIC) | MIC ([4]; strain SMA UFR134 (TEM-1, BES-1), CLA @ 4 μg/ml+ ATB) | MIC ([4]; strain SMA UFR135 (TEM-1, KPC-2), CLA @ 4 μg/ml+ ATB)
37200 ng·h/mL: AUC(0-inf) (in vivo; iv)
0.25 µg/mL: MIC ATB in combination ([4]; SMA UFR143, AF1 @ 4 μg/mL) | MIC ATB in combination ([4]; SMA UFR143, AF1 @ 8 μg/mL)
8 µg/mL: MIC ([1]; strain KOX UFR224 (CTX-M-15, OXA-48), CLA @ 4 μg/ml+ ATB, read-out: MIC)
2 µg/mL: MIC ATB in combination ([1]; KOX UFR21, AF1 @ 4 μg/mL) | MIC ATB in combination ([4]; SMA UFR135, AF1 @ 4 μg/mL) | MIC ATB in combination ([4]; SMA UFR135, AF1 @ 8 μg/mL) | MIC ATB in combination ([4]; SMA UFR136, AF1 @ 8 μg/mL) | MIC ATB in combination ([4]; SMA UFR142, AF1 @ 4 μg/mL) | MIC ([4]; ATB combined with CLA @ 4 μg/ml, strain SMA UFR238 (OXA-48)) | MIC ([4]; strain SMA UFR139 (SME-2), CLA @ 4 μg/ml+ ATB) | MIC ([4]; strain SMA UFR141 (OXA-48), ATB alone) | MIC ([4]; strain SMA UFR142 (OXA-48), ATB alone) | MIC ([4]; strain SMA UFR142 (OXA-48), CLA @ 4 μg/ml+ ATB) | MIC ([4]; strain SMA UFR239 (ESAC), ATB alone) | MIC ([4]; strain SMA UFR239 (ESAC), CLA @ 4 μg/ml+ ATB)
≤ 0.125 µg/mL: MIC ([1]; strain KOX UFR223 (SHV-11, OXA-48), ATB alone, read-out: MIC)
64 µg/mL: MIC ([4]; strain SMA UFR135 (TEM-1, KPC-2), ATB alone) | MIC ([4]; strain SMA UFR143 (CTX-M-15, OXA-1, OXA-48), CLA @ 4 μg/ml+ ATB)
≤ 0.25 µg/mL: MIC ([1]; strain KOX UFR223 (SHV-11, OXA-48), CLA @ 4 μg/ml+ ATB, read-out: MIC) | MIC ([3]; ATB alone) | MIC ([3]; CLA @ 4 μg/ml+ ATB)
45%: bioavailability (in vivo; po)
<=0.25 μg/mL: MIC ATB in combination ([1]; KOX UFR173, AF1 @ 4 μg/mL) | MIC ATB in combination ([1]; KOX UFR173, AF1 @ 8 μg/mL) | MIC ATB in combination ([1]; KOX UFR223, AF1 @ 4 μg/mL) | MIC ATB in combination ([1]; KOX UFR223, AF1 @ 8 μg/mL) | MIC ATB in combination ([1]; KOX UFR224, AF1 @ 4 μg/mL) | MIC ATB in combination ([1]; KOX UFR224, AF1 @ 8 μg/mL) | MIC ATB in combination ([3]; AF1 @ 4 μg/mL) | MIC ATB in combination ([3]; AF1 @ 8 μg/mL) | MIC ATB in combination ([4]; SMA UFR30, AF1 @ 4 μg/mL) | MIC ATB in combination ([4]; SMA UFR30, AF1 @ 8 μg/mL) | MIC ATB in combination ([4]; SMA UFR137, AF1 @ 4 μg/mL) | MIC ATB in combination ([4]; SMA UFR137, AF1 @ 8 μg/mL) | MIC ATB in combination ([4]; SMA UFR138, AF1 @ 4 μg/mL) | MIC ATB in combination ([4]; SMA UFR138, AF1 @ 8 μg/mL) | MIC ATB in combination ([4]; SMA UFR139, AF1 @ 8 μg/mL)
